Assays:
[1] = tested on: severe posthypoxic myoclonus
Text: After obtaining verbal consent from the patient and their spouse, they were given approximately six ounces of wine to drink (alcohol content 14% by volume). […] They were videotaped before and after the trial with alcohol.

[2] = tested on: severe posthypoxic myoclonus; assay: Earlier trials of anti-myoclonic medications in the Example 1 patient (case history); settings: for reason for intolerance / adverse effect: human, in vivo
Text: The patient was referred to the Columbia University Medical Center Movement Disorder Center for evaluation of severe posthypoxic myoclonus at the age of 37. […] Back-averaged EEGs and somatosensory evoked potentials were not available.

[3] = approximately six ounces of wine
[4] = Example 1 patient, before the trial

CCO [alcohol]
duration of anti-myoclonic effect [1, 3]: resolved in several hours | effect on myoclonus [1, 3]: dramatic improvement in myoclonus | time to improvement in myoclonus ([1]; approximately six ounces of wine (alcohol content 14% by volume)): ≤ 30 min

O=C1CN=C(c2ccccc2Cl)c2cc([N+](=O)[O-])ccc2N1 [clonazepam]
dose-limiting side effect [2, 4]: dose-limiting sedation | effect on severity of myoclonus [2, 4]: partially improved | outcome of trials of anti-myoclonic medications [2, 4]: only minimally successful

CC[C@@H](C(N)=O)N1CCCC1=O [levetiracetam]
outcome of trials of anti-myoclonic medications [2, 4]: only minimally successful

CC1(C)O[C@@H]2[C@@H](CO[C@@]3(COS(N)(=O)=O)OC(C)(C)O[C@@H]23)O1 [topiramate]
outcome of trials of anti-myoclonic medications [2, 4]: only minimally successful

CCCC(CCC)C(=O)O [valproic acid]
outcome of trials of anti-myoclonic medications [2, 4]: only minimally successful | reason for intolerance / adverse effect [2]: drop in platelet count

NS(=O)(=O)Cc1noc2ccccc12 [zonisamide]
outcome of trials of anti-myoclonic medications [2, 4]: only minimally successful | reason for intolerance / adverse effect [2]: anorexia

From patent US20090137565A1, “Method for treatment of movement disorders” (The Trustees of Columbia University in the City of New York, priority 2004, published 2009)
